According to paper PMC6736568, “Discovery of Novel Anti-cryptosporidial Activities From Natural Products by in vitro High-Throughput Phenotypic Screening” (Frontiers in Microbiology, 2019):
Counter-ions that a name gives are not always drawn. Like-named read-outs stand apart in the source and are kept apart here.

Legend:
Cryptosporidium parvum = assay: qRT-PCR assay of the growth of C. parvum in vitro in HCT-8 host cells (primary and secondary screening, EC50); assay type: cell-based; conditions: Cryptosporidium parvum, HCT-8; for inhibition at 3.3 µM: secondary screening at 3.3 uM, read-out: % Inhibition (3.3 uM)
[1] = primary screening at 10 uM, read-out: Inhibition (%)
[2] = primary screening at 10 uM, treated vs control

SMILES | inhibition at 10 µM (Cryptosporidium parvum; [1]) [%] | Hs18S ΔCT (HCT-8 host cells (Hs18S); [2]) | cytotoxicity at 10 µM (in vitro) [%] | inhibition at 3.3 µM (Cryptosporidium parvum) [%] | Hs18S ΔCT (HCT-8 host cells (Hs18S); human, 41 h, 10 μM) | cytotoxicity at 41 h, 10 µM (in vitro; human) [%] | Hs18S ΔCT (HCT-8 host cells (Hs18S)) | cytotoxicity at 41 h, 10 µM (in vitro) [%] | inhibition at 10 µM (Cryptosporidium parvum) [%]
C=C(C)[C@H]1COc2cc3oc(=O)ccc3cc2O1 [OBLIQUIN] | 1.63 | -0.33 | -25.7 |  |  |  |  |  | 
COC1=CC(=O)C(O)=C/C1=C\C=C\c1ccccc1 [OBTUSAQUINONE] | 87.1 |  |  | -92 | 0.84 | 44.3 |  |  | 
NCC(O)c1ccc(O)cc1 (centres unmarked) [OCTOPAMINE HYDROCHLORIDE] | 85.1 |  |  | -12 | -0.21 | -15.8 |  |  | 
CO[C@H]1C[C@H](O[C@H]2[C@H](C)[C@@H](O[C@@H]3O[C@H](C)C[C@H](N(C)C)[C@H]3O)[C@@H](C)C[C@@]3(CO3)C(=O)[C@H](C)[C@@H](O)[C@@H](C)[C@@H](C)OC(=O)[C@@H]2C)O[C@@H](C)[C@@H]1O [OLEANDOMYCIN PHOSPHATE] | 17.6 |  |  |  | 3.02 | 87.6 |  |  | 
COc1ccc(CC(=O)c2ccc(O)cc2O)cc1 [ONONETIN] | 8.27 |  |  |  | -0.18 | -12.9 |  |  | 
O=C(O)c1cc(=O)[nH]c(=O)[nH]1 [OROTIC ACID] | 8.85 |  |  |  | -0.39 | -31.1 |  |  | 
CCOC(=O)c1c(C)cc(O)cc1O [ORSELLINIC ACID, ETHYL ESTER] | 23.7 |  |  |  | -0.12 | -8.3 |  |  | 
Cc1cc(O)cc(O)c1C(=O)O [ORSELLINIC ACID] | 37.5 | -0.25 |  |  |  | -19.3 |  |  | 
CC(C)=CCc1c2c(c3occ(-c4ccc(O)cc4)c(=O)c3c1O)C=CC(C)(C)O2 [OSAJIN] | -1.77 |  |  |  | -1.06 | -108 |  |  | 
CC(=O)O[C@H]1C(=O)[C@@]2(C)[C@H]([C@H](OC(=O)c3ccccc3)[C@]3(O)C[C@H](OC(=O)[C@H](O)[C@@H](NC(=O)c4ccccc4)c4ccccc4)C(C)=C1C3(C)C)[C@]1(OC(C)=O)CO[C@@H]1C[C@@H]2O [PACLITAXEL] | 86.6 |  |  | 93 | 0.65 | 36.1 |  |  | 
COc1ccc(C(C)=O)c(O)c1 [PAEONOL] | -10.4 |  |  |  | 0.01 | 0.8 |  |  | 
COc1cc2c(cc1OC)-c1cc3ccc(OC)c(OC)c3c[n+]1CC2 [PALMATINE CHLORIDE] | 9.29 |  |  |  | -0.09 | -6.1 |  |  | 
CCCCCCCCCCCCCCCC(=O)NCCO [PALMIDROL] | -7.35 |  |  |  | 0.05 | 3.5 |  |  | 
COc1ccc(Cc2nccc3cc(OC)c(OC)cc23)cc1OC [PAPAVERINE HYDROCHLORIDE] | 56.2 |  |  |  |  | 32.7 | 0.57 |  | 
NC[C@@H]1O[C@H](O[C@H]2[C@@H](O)[C@H](O[C@@H]3[C@@H](O)[C@H](N)C[C@H](N)[C@H]3O[C@H]3O[C@H](CO)[C@@H](O)[C@H](O)[C@H]3N)O[C@@H]2CO)[C@H](N)[C@@H](O)[C@@H]1O [PAROMOMYCIN SULFATE] | 19.7 |  |  |  | 0.08 | 5.5 |  |  | 
O=C1C=C2C(=CCOC2O)O1 (centres unmarked) [PATULIN] | 91.4 | 0.81 | 43 | 10 |  |  |  |  | 
COc1ccc(-c2cc(=O)c3c(O)c(OC)c(O[C@@H]4O[C@H](CO[C@@H]5O[C@@H](C)[C@H](O)[C@@H](O)[C@H]5O)[C@@H](O)[C@H](O)[C@H]4O)cc3o2)cc1 [PECTOLINARIN] | -21 |  |  |  | 1.99 | 74.8 |  |  | 
C[C@@]12C[C@@]3(O)O[C@@H](O1)[C@]1(COC(=O)c4ccccc4)[C@H]3C[C@@]12O[C@@H]1O[C@H](CO)[C@@H](O)[C@H](O)[C@H]1O [PEONIFLORIN] | -19.9 |  |  |  | -0.11 | -7.6 |  |  | 
COc1ccc(C(C)=O)c(OC)c1 [PEONOL METHYL ETHER] | 18.9 |  |  |  | -0.31 | -24.3 |  |  | 
C=C(C)[C@@H]1CC=C(C(=O)O)CC1 [PERILLIC ACID (-)] | -16.2 | 0.14 | 8.9 |  |  |  |  |  | 
C=C(C)[C@@H]1CC=C(CO)CC1 [PERILLYL ALCOHOL] | 29.5 |  |  |  | -0.35 | -27.4 |  |  | 
OCC(O)C(O)C(O)C(O)C(O)CO (centres unmarked) [PERSEITOL] | 11.3 |  |  |  | -0.23 | -17.1 |  |  | 
CC(C)=CCc1c(O)cc2oc(C)cc(=O)c2c1O [PEUCENIN] | 2.08 |  |  |  | -0.39 | -31.3 |  |  | 
NCC(=O)c1ccccc1 [PHENACYLAMINE HYDROCHLORIDE] | 9.11 |  |  |  | 1.22 | 57 |  |  | 
O=C(CCc1ccc(O)cc1)c1c(O)cc(O)cc1O [PHLORETIN] | -5.73 |  |  |  | -0.15 | -10.8 |  |  | 

SMILES | inhibition at 10 µM (Cryptosporidium parvum; [1]) [%] | Hs18S ΔCT (HCT-8 host cells (Hs18S); [2]) | cytotoxicity at 10 µM (in vitro) [%] | inhibition at 3.3 µM (Cryptosporidium parvum) [%] | Hs18S ΔCT (HCT-8 host cells (Hs18S); human, 41 h, 10 μM) | cytotoxicity at 41 h, 10 µM (in vitro; human) [%] | Hs18S ΔCT (HCT-8 host cells (Hs18S)) | cytotoxicity at 41 h, 10 µM (in vitro) [%] | inhibition at 10 µM (Cryptosporidium parvum) [%]
O=C(CCc1ccc(O)cc1)c1c(O)cc(O)cc1O[C@@H]1O[C@H](CO)[C@@H](O)[C@H](O)[C@H]1O [PHLORIDZIN] | 28.9 |  |  |  | -0.08 | -5.8 |  |  | 
COc1cc(O)c2c(c1)C(=O)c1cc(C)cc(O)c1C2=O [PHYSCION] | -57.5 | 0.20 | 12.9 |  |  |  |  |  | 
CNC(=O)Oc1ccc2c(c1)[C@]1(C)CCN(C)[C@@H]1N2C [PHYSOSTIGMINE SALICYLATE] | -4.89 | -0.12 | -8.6 |  |  |  |  |  | 
OC[C@H]1O[C@@H](Oc2cc(O)cc(/C=C/c3ccc(O)cc3)c2)[C@H](O)[C@@H](O)[C@@H]1O [PICEID] | 4.1 |  |  |  | -0.36 | -28.7 |  |  | 
COc1cc([C@@H]2c3cc4c(cc3[C@H](O)[C@H]3COC(=O)[C@@H]23)OCO4)cc(OC)c1OC [PICROPODOPHYLLIN] | 79.4 | 0.94 |  | 56 |  |  |  | 47.8 | 
CC(C)(O)[C@@H]1[C@H]2OC(=O)[C@@H]1[C@]1(O)C[C@H]3O[C@]34C(=O)O[C@H]2[C@]14C [PICROTIN] | -1.94 | -0.20 | -14.8 |  |  |  |  |  | 
C=C(C)[C@@H]1[C@H]2OC(=O)[C@@H]1[C@]1(O)C[C@H]3O[C@]34C(=O)O[C@H]2[C@]14C [PICROTOXININ] | 23.1 | -0.81 | -75.3 |  |  |  |  |  | 
CC[C@@H]1C(=O)OC[C@@H]1Cc1cncn1C [PILOCARPINE NITRATE] | -30.2 |  |  |  | -0.10 | -7.3 |  |  | 
COc1c(OC)c2occc2c2oc(=O)ccc12 [PIMPINELLIN] | 43.6 |  |  |  | 0.21 | 13.3 |  |  | 
O=C(O)/C=C/C=C/c1ccc2c(c1)OCO2 [PIPERIC ACID] | 0.79 | -0.02 | -1.7 |  |  |  |  |  | 
O=C(/C=C/C=C/c1ccc2c(c1)OCO2)N1CCCCC1 [PIPERINE] | -12.1 | 0.03 | 2.1 |  |  |  |  |  | 
O=C(O)c1ccc2c(c1)OCO2 [PIPERONYLIC ACID] | 30.3 | -0.04 | -3.1 |  |  |  |  |  | 
COc1cc(/C=C/C(=O)N2CCC=CC2=O)cc(OC)c1OC [PIPLARTINE] | 73.7 | 0.33 | 20.5 | 10 |  |  |  |  | 
O=C(O)[C@@H](O)[C@](O)(Cc1ccc(O)cc1)C(=O)O [PISCIDIC ACID] | -5.12 | -0.03 | -1.7 |  |  |  |  |  | 
CC1=CC(=O)c2c(O)cccc2C1=O [PLUMBAGIN] | 95.1 |  |  | 13 | 1.26 | 58.1 |  |  | 
CC(C)=CCOc1cc2oc(=O)ccc2cc1O [PRENYLETIN] | -6.72 |  |  |  | -0.59 | -50 |  |  | 
COC(=O)[C@]1(C)CC[C@]2(C)CC[C@]3(C)C4=CC=C5C(=CC(=O)C(O)=C5C)[C@]4(C)CC[C@@]3(C)[C@@H]2C1 [PRISTIMERIN] | 94.7 | 0.55 | 31.6 | 30 |  |  |  |  | 
C=CC1=C(C)c2cc3[nH]c(cc4nc(cc5[nH]c(cc1n2)c(C)c5CCC(=O)O)C(CCC(=O)O)=C4C)c(C)c3C=C [PROTOPORPHYRIN IX] | -20.6 |  |  |  | 0.00 | -0.1 |  |  | 
CC1=CCc2c(cc3oc(C)cc(=O)c3c2O)OC1 [PTAEROXYLIN] | -20.7 |  |  |  | -0.13 | -9.7 |  |  | 
O=c1c(-c2ccc(O)cc2)coc2c([C@@H]3O[C@H](CO)[C@@H](O)[C@H](O)[C@H]3O)c(O)ccc12 [PUERARIN] | -23 | -0.46 |  |  |  | -37.4 |  |  | 
O=C1c2ccccc2C(=O)c2c(O)c(O)cc(O)c21 [PURPURIN] | -37.2 | -0.19 |  |  |  | -14.3 |  |  | 
O=c1c(O)cccc2cc(O)c(O)c(O)c12 [PURPUROGALLIN] | -12.6 |  |  |  | -0.01 | -0.7 |  |  | 
NCCCCN [PUTRESCINE DIHYDROCHLORIDE] |  |  | -3 |  |  |  | -0.04 |  | 28.7
CC[C@@]1(O)C[C@H](O[C@H]2C[C@H](N(C)C)[C@H](O)[C@H](C)O2)c2c(cc3c(c2O)C(=O)c2c(O)ccc(O)c2C3=O)[C@H]1C(=O)OC [PYRROMYCIN] | -46.1 | 0.35 | 21.5 |  |  |  |  |  | 
